The structures appear in SMILES notation.

For the experiment, the target named is T1, hSOS1 enzyme / KRAS (G12C), GST-Tag, GDP-bound protein (Homo sapiens, UniProt Q07889).
T1 sequence (Q07889 564-1049 limits assumed): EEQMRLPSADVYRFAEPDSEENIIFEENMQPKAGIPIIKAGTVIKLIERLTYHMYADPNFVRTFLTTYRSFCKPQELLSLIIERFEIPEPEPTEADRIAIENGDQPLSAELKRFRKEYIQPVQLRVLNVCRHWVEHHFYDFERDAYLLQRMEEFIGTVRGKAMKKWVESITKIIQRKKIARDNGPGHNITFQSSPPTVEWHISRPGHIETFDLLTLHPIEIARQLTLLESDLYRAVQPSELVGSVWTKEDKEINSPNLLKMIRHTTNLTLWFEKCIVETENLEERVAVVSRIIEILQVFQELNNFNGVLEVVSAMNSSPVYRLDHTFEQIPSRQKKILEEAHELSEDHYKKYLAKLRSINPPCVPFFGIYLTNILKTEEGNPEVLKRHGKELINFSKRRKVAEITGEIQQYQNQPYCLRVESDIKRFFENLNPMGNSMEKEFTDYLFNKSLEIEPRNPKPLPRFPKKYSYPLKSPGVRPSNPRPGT
The experiment in a line: SOS1-mediated KRAS guanine nucleotide exchange (GEF) assay, HTRF ("On Assay"). Type of experiment: biochemical. Particulars: 1 μM compound. As for the experimental part:
Biochemical Assay: Measurement of SOS1-Mediated KRAS Guanine Nucleotide Exchange (GEF) Assay
This assay quantifies the HTRF-based SOS1 mediated guanine nucleotide exchange assay detecting GTP binding to KRAS (G12C), GST-Tag, GDP-bound protein. This is also referred as “On Assay”.The assay buffer composition is as follows: 10 mM HEPES pH-7, 150 mM NaCl, 5 mM MgCl2, 1 mM DTT, 0.05% BSA, 0.0025% IGEPAL CA-630 and MilliQ water. 0.5 μl of compounds diluted in assay buffer were dispensed into the respective wells of 384 black well test plate. 4.75 μl of KRAS working solution containing 100 nM KRAS (G12C), GST-Tag, GDP-bound protein GDP-loaded (Reaction biology) and 2 nM Anti GST-Tb cryptate (FRET donor, Cisbio) was added in assay buffer. The components were incubated for 10 min at 25° C.
4.75 μl of hSOS1 working solution containing 20 nM hSOS1 enzyme and 200 nM EDA-GTP-DY-647P (FRET acceptor, synthesized by Jena Bioscience (Germany), supplied as a 1 mM solution) was further added in assay buffer. 4.75 μl of inhibitor control having only 200 nM EDA-GTP-DY-647P1 component without hSOS1 working solution was added in the negative control well. The plate was short spun for few seconds and incubated for 10 min. HTRF was measured using Perkin Elmer-Nivo 5F multimode plate reader.
HTRF settings: EXCITATION FILTER—320/75 nm, EMISSION FILTER (1) —615/8 nm, EMISSION FILTER (2)—665/8 nm
The compound `C[C@@H](Nc1nc(N(C)C)nc2cnc(N3CCOCC3)cc12)c1cc(N)cc(C(F)(F)F)c1` [Example 8, (R)—N4-(1-(3-amino-5-(trifluoromethyl)phenyl)ethyl)-N2,N2-dimethyl-6-morpholinopyrido[3,4-d]pyrimidine-2,4-diamine] returned an inhibition at 1 µM of no less than 50%.
Regarding `COc1nc(N[C@H](C)c2cc(N)cc(C(F)(F)F)c2)c2cc(N3CCC(OC)CC3)ncc2n1` [Example 58, (R)—N-(1-(3-amino-5-(trifluoromethyl)phenyl)ethyl)-2-methoxy-6-(4-methoxypiperidin-1-yl)pyrido[3,4-d]pyrimidin-4-amine], the inhibition at 1 µM was no less than 50%.
Next, `CNCCC(=O)Nc1nc(N[C@H](C)c2cc(N)cc(C(F)(F)F)c2)c2cc(N3CCOCC3)ncc2n1` [Example 79, (R)—N-(4-((1-(3-amino-5-(trifluoromethyl)phenyl)ethyl)amino)-6-morpholinopyrido[3,4-d]pyrimidin-2-yl)-3-(methylamino)propanamide]: no less than 50%; `C[C@@H](Nc1nc(Cl)nc2cnc(N3CCN(C4CCC4)CC3)cc12)c1cc(N)cc(C(F)(F)F)c1` [Example 28, (R)—N-(1-(3-amino-5-(trifluoromethyl)phenyl)ethyl)-2-chloro-6-(4-cyclobutylpiperazin-1-yl)pyrido[3,4-d]pyrimidin-4-amine]: no less than 50%.
For `CNc1nc(N[C@H](C)c2cc(N)cc(C(F)(F)F)c2)c2cc(N3CCN(C)CC3)ncc2n1` [Example 31, (R)—N4-(1-(3-amino-5-(trifluoromethyl)phenyl)ethyl)-N2-methyl-6-(4-methylpiperazin-1-yl)pyrido[3,4-d]pyrimidine-2,4-diamine] the value was no less than 50%.
Regarding `C[C@@H](Nc1nc(N2CCCC2)nc2cnc(N3CCCC3)cc12)c1cc(N)cc(C(F)(F)F)c1` [Example 17, (R)—N-(1-(3-amino-5-(trifluoromethyl)phenyl)ethyl)-2,6-di(pyrrolidin-1-yl)pyrido[3,4-d]pyrimidin-4-amine], the inhibition at 1 µM was no less than 50%.
For `C[C@@H](Nc1nc(Cl)nc2cnc(N3CCCC3)cc12)c1cc(N)cc(C(F)(F)F)c1` [Example 1, (R)—N-(1-(3-amino-5-(trifluoromethyl)phenyl)ethyl)-2-chloro-6-(pyrrolidin-1-yl)pyrido[3,4-d]pyrimidin-4-amine], the inhibition at 1 µM is no less than 50%.
The compound `C[C@@H](Nc1nc(Cl)nc2ncc(N3CCCCC3)cc12)c1cc(N)cc(C(F)(F)F)c1` [Example 83, (R)—N-(1-(3-amino-5-(trifluoromethyl)phenyl)ethyl)-2-chloro-6-(piperidin-1-yl)pyrido[2,3-d]pyrimidin-4-amine] returned an inhibition at 1 µM of no less than 50%.
As to `CCN1CCN(c2cnc3nc(OC)nc(N[C@H](C)c4cc(N)cc(C(F)(F)F)c4)c3c2)CC1` [Example 81, (R)—N-(1-(3-amino-5-(trifluoromethyl)phenyl)ethyl)-6-(4-ethylpiperazin-1-yl)-2-methoxypyrido[2,3-d]pyrimidin-4-amine], the inhibition at 1 µM is no less than 50%.
Next, `C[C@@H](Nc1nc(N(C)C)nc2cnc(N3CCCC3)cc12)c1cc(N)cc(C(F)(F)F)c1` [Example 2, N4—(R)-(1-(3-amino-5-(trifluoromethyl)phenyl)ethyl)-N2,N2-dimethyl-6-(pyrrolidin-1-yl)pyrido[3,4-d]pyrimidine-2,4-diamine]: no less than 50%.
For `CC(C)N1CCN(c2cc3c(N[C@H](C)c4cc(N)cc(C(F)(F)F)c4)nc(N(C)C)nc3cn2)CC1` [Example 50, (R)—N4-(1-(3-amino-5-(trifluoromethyl)phenyl)ethyl)-6-(4-isopropylpiperazin-1-yl)-N2,N2-dimethylpyrido[3,4-d]pyrimidine-2,4-diamine] the value was no less than 50%; for `C[C@@H](Nc1nc(Cl)nc2cnc(N3CCC(F)(F)CC3)cc12)c1cc(N)cc(C(F)(F)F)c1` [Example 21, (R)—N-(1-(3-amino-5-(trifluoromethyl)phenyl)ethyl)-2-chloro-6-(4,4-difluoropiperidin-1-yl)pyrido[3,4-d]pyrimidin-4-amine], no less than 50%.
The compound `COc1nc(N[C@H](C)c2cc(N)cc(C(F)(F)F)c2)c2cc(N3CCCC3)ncc2n1` [Example 3, (R)—N-(1-(3-amino-5-(trifluoromethyl)phenyl)ethyl)-2-methoxy-6-(pyrrolidin-1-yl)pyrido[3,4-d]pyrimidin-4-amine] had an inhibition at 1 µM of no less than 50%.
Next, `COc1nc(N[C@H](C)c2cc(N)cc(C(F)(F)F)c2)c2cc(N3CCOCC3)ncc2n1` [Example 57, (R)—N-(1-(3-amino-5-(trifluoromethyl)phenyl)ethyl)-2-methoxy-6-morpholinopyrido[3,4-d]pyrimidin-4-amine]: no less than 50%; `CCN1CCN(c2cnc3cc(Cl)nc(N[C@H](C)c4cc(N)cc(C(F)(F)F)c4)c3c2)CC1` [Example 88, (R)—N-(1-(3-amino-5-(trifluoromethyl)phenyl)ethyl)-7-chloro-3-(4-ethylpiperazin-1-yl)-1,6-naphthyridin-5-amine]: no less than 50%.
In turn, `Cc1nnc(N[C@H](C)c2cc(N)cc(C(F)(F)F)c2)c2cc(N3CCOCC3)cnc12` [Example 87, (R)—N-(1-(3-amino-5-(trifluoromethyl)phenyl)ethyl)-8-methyl-3-morpholinopyrido[2,3-d]pyridazin-5-amine] gave an inhibition at 1 µM of no less than 50%.
Next, `C[C@@H](Nc1nc(OCCO)nc2cnc(N3CCCC3)cc12)c1cc(N)cc(C(F)(F)F)c1` [Example 11, (R)-2-((4-((1-(3-amino-5-(trifluoromethyl)phenyl)ethyl)amino)-6-(pyrrolidin-1-yl)pyrido[3,4-d]pyrimidin-2-yl)oxy)ethan-1-ol]: no less than 50%; `CNc1nc(N[C@H](C)c2cc(N)cc(C(F)(F)F)c2)c2cc(N3CCC(OC)CC3)ncc2n1` [Example 30, (R)—N4-(1-(3-amino-5-(trifluoromethyl)phenyl)ethyl)-6-(4-methoxypiperidin-1-yl)-N2-methylpyrido[3,4-d]pyrimidine-2,4-diamine]: no less than 50%.
On to `CCN1CCN(c2cc3c(N[C@H](C)c4cc(N)cc(C(F)(F)F)c4)nc(Cl)nc3cc2F)CC1` [Example 70, (R)—N-(1-(3-amino-5-(trifluoromethyl)phenyl)ethyl)-2-chloro-6-(4-ethylpiperazin-1-yl)-7-fluoroquinazolin-4-amine], for which the inhibition at 1 µM was no less than 50%.
Next, `C[C@@H](Nc1nc(Cl)nc2cnc(N3CCN(C)CC3)cc12)c1cc(N)cc(C(F)(F)F)c1` [Example 23, (R)—N-(1-(3-amino-5-(trifluoromethyl)phenyl)ethyl)-2-chloro-6-(4-methylpiperazin-1-yl)pyrido[3,4-d]pyrimidin-4-amine]: no less than 50%.
For `C[C@@H](Nc1nc(N2CCC2)nc2cnc(N3CCC(F)(F)CC3)cc12)c1cc(N)cc(C(F)(F)F)c1` [Example 51, (R)—N-(1-(3-amino-5-(trifluoromethyl)phenyl)ethyl)-2-(azetidin-1-yl)-6-(4,4-difluoropiperidin-1-yl)pyrido[3,4-d]pyrimidin-4-amine] the value was no less than 50%.
Next, `C[C@@H](Nc1nc(N2CCC2)nc2cnc(N3CCC(F)CC3)cc12)c1cc(N)cc(C(F)(F)F)c1` [Example 44, (R)—N-(1-(3-amino-5-(trifluoromethyl)phenyl)ethyl)-2-(azetidin-1-yl)-6-(4-fluoropiperidin-1-yl)pyrido[3,4-d]pyrimidin-4-amine]: no less than 50%.
`COC1CCN(c2cc3c(N[C@H](C)c4cccc(C(F)F)c4F)nc(Cl)nc3cn2)CC1` [Example 60, (R)-2-chloro-N-(1-(3-(difluoromethyl)-2-fluorophenyl)ethyl)-6-(4-methoxypiperidin-1-yl)pyrido[3,4-d]pyrimidin-4-amine]: the inhibition at 1 µM is no less than 50%.
Next, `CCN1CCN(c2cc3c(N[C@H](C)c4cc(N)cc(C(F)(F)F)c4)nc(N(C)C)nc3cn2)CC1` [Example 49, (R)—N4-(1-(3-amino-5-(trifluoromethyl)phenyl)ethyl)-6-(4-ethylpiperazin-1-yl)-N2,N2-dimethylpyrido[3,4-d]pyrimidine-2,4-diamine]: no less than 50%; `CNc1nc(N[C@H](C)c2cc(N)cc(C(F)(F)F)c2)c2cc(N3CCOCC3)ccc2n1` [Example 74, (R)—N4-(1-(3-amino-5-(trifluoromethyl)phenyl)ethyl)-N2-methyl-6-morpholinoquinazoline-2,4-diamine]: no less than 50%.
